Results reported in patent US20210068395A1, “METHODS OF APPLYING ONE OR MORE CERTAIN HETEROARYL-1,2,4-TRIAZOLE AND HETEROARYL-TETRAZOLE COMPOUNDS TO CONTROL DAMAGE ON PLANTS, PROPAGATION MATERIAL THEREOF, AND PLANT DERIVED PRODUCTS” (SYNGENTA CROP PROTECTION AG, priority 2018, published 2021).

Key:
Type in all cases: in vivo
[1] = system: Myzus persicae (Green Peach Aphid); assay: Myzus persicae feeding activity (sucrose solution, Parafilm); settings: 120 h, test rate 12.5 ppm, in sucrose solution, 5 days after infestation
Description: Test compounds prepared from 10,000 ppm DMSO stock solutions were applied by pipette into 24-well microtiter plates and mixed with sucrose solution. The plates were closed with a stretched Parafilm. A plastic stencil with 24 holes was placed onto the plate and infested pea seedlings were placed directly on the Parafilm. The infested plate was closed with a gel blotting paper and another plastic stencil and then turned upside down. The samples were assessed for mortality 5 days after infestation.

[2] = system: Myzus persicae (Green Peach Aphid); assay: Myzus persicae systemic activity; settings: 144 h, test rate 24 ppm, roots of pea seedlings in test solution, 6 days
Description: Roots of pea seedlings infested with an aphid population of mixed ages were placed directly into aqueous test solutions prepared from 10,000 DMSO stock solutions. The samples were assessed for mortality 6 days after placing seedlings into test solutions.

[3] = system: Chrysodeixis includens (Soybean Looper); assay: Chrysodeixis includens larvicide, feeding/contact; settings: 120 h, test rate 50 ppm, L2 larvae on soybean leaves, 5 days after infestation, read-out: control in at least one of the two categories (mortality or growth inhibition)
Description: Soybean plants were treated in a spray chamber, cut off and placed into petri dishes containing wet filter paper. 1 d after application leaves were infested with 5 L2 larvae and covered with a fabric filter and plastic lids. 5 days after infestation the samples were assessed for mortality and growth inhibition.

[4] = system: Thrips tabaci (Onion thrips); assay: Thrips tabaci feeding/contact activity; settings: foliar, 144 h, application rate 200 ppm, sunflower leaf discs, 6 days after infestation, read-out: control in at least one of the two categories (mortality or anti-feeding)
Description: (§1) Sunflower leaf discs were placed on agar in 24-well microtiter plates and sprayed with aqueous test solutions prepared from 10,000 ppm DMSO stock solutions. After drying the leaf discs were infested with a thrips population of mixed ages. The samples were assessed for mortality, and anti-feeding 6 days after infestation.

[5] = system: Carpocapsa (Cydia) Pomonella (Codling Moth); assay: Carpocapsa (Cydia) pomonella larvicide, feeding/contact; settings: 336 h, test rate 50 ppm, L1 larvae on diet cubes, 14 days after infestation, read-out: control in at least one of the two categories (mortality or growth inhibition)
Description: Diet cubes coated with paraffin were sprayed with diluted test solutions in an application chamber. After drying off the treated cubes (10 replicates) were infested with 1 L1 larvae. Samples were incubated at 26-27° C. and checked 14 days after infestation for mortality and growth inhibition.

[6] = system: Plutella xylostella (Diamond Back Moth); assay: Plutella xylostella feeding/contact activity, 96-well artificial diet; settings: 216 h, application rate 500 ppm, 9 days after infestation
Description: 1, 2, 3, 4, 17, 19, 23, 26, 39, 41, 42, 54, 55, 56 Plutella xylostella (Diamond Back Moth):Feeding/Contact Activity 96-well microtiter plates containing artificial diet were treated with aqueous test solutions, prepared from 10,000 ppm DMSO stock solutions, by a liquid handling robot. After drying, eggs (˜30 per well) were infested onto a netted lid which was suspended above the diet. The eggs hatch and L1 larvae move down to the diet. The samples were assessed for mortality 9 days after infestation.

[7] = system: Spodoptera littoralis (Egyptian Cotton Leaf Worm); assay: Spodoptera littoralis feeding/contact activity; settings: foliar, 72 h, application rate 200 ppm, L1 larvae on cotton leaf discs, 3 days after infestation, read-out: control in at least one of the three categories (mortality or growth inhibition or anti-feeding)
Description: Cotton leaf discs were placed onto agar in 24-well microtiter plates and sprayed with aqueous test solutions prepared from 10,000 ppm DMSO stock solutions. After drying the leaf discs were infested with five L1 larvae. The samples were assessed for mortality, anti-feeding and growth inhibition 3 days after infestation.

[8] = system: Spodoptera littoralis (Egyptian Cotton Leaf Worm); assay: Spodoptera littoralis systemic activity (lettuce); settings: 144 h, test rate 12.5 ppm, root uptake in lettuce, 6 days after infestation, read-out: control in at least one of the three categories (mortality or growth inhibition or anti-feeding)
From the text: Test compounds were applied by pipette prepared from 10,000 ppm DMSO stock solutions into 24-well plates and mixed with agar. Lettuce seeds were placed onto the agar and the multi well plate was closed by another plate which contained also agar. After 7 days the compound was absorbed by the roots and the lettuce grew into the lid plate. The lettuce leaves were then cut off into the lid plate. Spodoptera eggs were pipetted through a plastic stencil onto a humid gel blotting paper and the lid plate was closed with it. The samples were assessed for mortality, anti-feeding and growth inhibition 6 days after infestation.

[9] = system: Diabrotica balteata (corn root worm); assay: Diabrotica balteata (corn root worm), sprayed maize sprouts; settings: 96 h, application rate 200 ppm, L2 larvae, 4 days after infestation, read-out: control in at least one of the two categories (mortality or growth inhibition)
Description: Maize sprouts placed onto an agar layer in 24-well microtiter plates were treated with aqueous test solutions prepared from 10,000 ppm DMSO stock solutions by spraying. After drying, the plates were infested with L2 larvae (6 to 8 per well). The samples were assessed for mortality and growth inhibition in comparison to untreated samples 4 days after infestation.

[10] = system: Plutella xylostella (Diamond Back Moth); assay: Plutella xylostella feeding/contact activity, 24-well artificial diet; settings: 192 h, application rate 200 ppm, 24-well artificial diet, 8 days after infestation, read-out: control in at least one of the two categories (mortality or growth inhibition)
Description: 24-well microtiter plates with artificial diet were treated with aqueous test solutions prepared from 10,000 ppm DMSO stock solutions by pipetting. After drying, Plutella eggs were pipetted through a plastic stencil onto a gel blotting paper and the plate was closed with it. The samples were assessed for mortality and growth inhibition in comparison to untreated samples 8 days after infestation.

[11] = system: Chilo suppressalis (Striped Stem Borer); assay: Chilo suppressalis larvicide, feeding/contact; settings: 120 h, test rate 200 ppm, L2 larvae on sprayed rice plants, 5 days after application
Description: Rice plants were treated in a spray chamber, cut off and placed into petri dishes containing wet filter paper. 10 L2 larvae were infested and covered up with a cotton filter and a lid. 5 days after application samples were assessed for mortality.

[12] = system: Myzus persicae (Green Peach Aphid); assay: Myzus persicae feeding/contact activity; settings: foliar, 144 h, application rate 200 ppm, sunflower leaf discs sprayed, 6 days after infestation
Description: Sunflower leaf discs were placed onto agar in a 24-well microtiter plate and sprayed with aqueous test solutions prepared from 10,000 ppm DMSO stock solutions. After drying, the leaf discs were infested with an aphid population of mixed ages. The samples were assessed for mortality 6 days after infestation.

[13] = system: Euschistus heros (Neotropical Brown Stink Bug); assay: Euschistus heros feeding/contact activity; settings: 120 h, application rate 200 ppm, N2 nymphs on soybean leaves, 5 days after infestation, read-out: control in at least one of the two categories (mortality or growth inhibition)
Description: Soybean leaves on agar in 24-well microtiter plates were sprayed with aqueous test solutions prepared from 10,000 ppm DMSO stock solutions. After drying the leaves were infested with N2 nymphs. The samples were assessed for mortality and growth inhibition 5 days after infestation.

[14] = system: Nilaparvata lugens (Brown Plant Hopper); assay: Nilaparvata lugens larvicide, systemic into water; settings: 168 h, test rate 12.5 ppm, into nutritive solution of rice plants, N3 nymphs, 7 days after infestation, read-out: control in at least one of the two categories (mortality or growth inhibition)
Description: Rice plants cultivated in a nutritive solution were treated with the diluted test solutions into nourishing cultivation system. 1 day after application plants were infested with ˜20 N3 nymphs. 7 days after infestation samples were assessed for mortality and growth inhibition.

[15] = system: Nilaparvata lugens (Brown Plant Hopper); assay: Nilaparvata lugens larvicide, feeding/contact; settings: 168 h, test rate 200 ppm, N3 nymphs on sprayed rice plants, 7 days after treatment, read-out: control in at least one of the two categories (mortality or growth inhibition)
Description: Rice plants were treated with the diluted test solutions in a spray chamber. After drying plants were infested with ˜20 N3 nymphs. 7 days after the treatment samples were assessed for mortality and growth inhibition.

[16] = system: Aphis craccivora (Black Bean Aphid); assay: Aphis craccivora mixed population, contact/feeding; settings: 120 h, test rate 200 ppm, pea seedlings sprayed, 5 days after treatment
Description: Pea seedlings infested with mixed aged aphid population were treated with diluted test solutions in a spray chamber. 5 days after treatment, samples were assessed for mortality.

[17] = system: Frankliniella occidentalis (Western Flower Thrips); assay: Frankliniella occidentalis feeding/contact activity; settings: foliar, 168 h, application rate 200 ppm, mixed ages on sunflower leaf discs, 7 days after infestation
Description: as §1, with “10,000” for “10,000 ppm”, “Frankliniella” for “thrips”, “mortality 7” for “mortality, and anti-feeding 6”

[18] = system: Aedes aegypti (Yellow Fever Mosquito); assay: whole plant or invertebrate; settings: test rate 200 ppm, adult females, mortality assessed at 24 and 48 hours
Description: (§2) Test solutions, at an application rate of 200 ppm in ethanol, were applied to 12 well tissue culture plates. Once the deposits were dry, five, two to five day old adult female Aedes aegypti were added to each well, and sustained with a 10% sucrose solution in a cotton wool plug. Assessment of knockdown was made one hour after introduction, and mortality was assessed at 24 and 48 hours after introduction.

[19] = system: Aphis craccivora (Black Bean Aphid); assay: Aphis craccivora mixed population, systemic/feeding; settings: 120 h, test rate 12.5 ppm, pea seedlings in test solutions, 5 days
Description: Pea seedlings infested with mixed aged aphid population, were put into glass vials with test solutions. 5 days later, samples were assessed for mortality.

[20] = system: Anopheles stephensi (Indian Malaria Mosquito); assay: Anopheles stephensi adult contact on treated plates; settings: test rate 200 ppm, adult females, mortality assessed at 24 and 48 hours
Description: as §2, with “Anopheles stephensi” for “Aedes aegypti”

| Structure (SMILES) | mortality at 12.5 ppm [1] [%] | mortality at 24 ppm [2] [%] | percent control (mortality or growth inhibition) at 50 ppm [3] [%] | percent control (mortality, anti-feedant effect or growth inhibition) at 200 ppm [4] [%] | percent control (mortality or growth inhibition) at 50 ppm [5] [%] | mortality at 500 ppm [6] [%] | percent control (mortality, anti-feedant effect or growth inhibition) at 200 ppm [7] [%] | percent control (mortality, anti-feedant effect or growth inhibition) at 12.5 ppm [8] [%] | percent control (mortality or growth inhibition) at 200 ppm [9] [%] | percent control (mortality or growth inhibition) at 200 ppm [10] [%] | mortality at 200 ppm [11] [%] | mortality at 200 ppm [12] [%] | percent control (mortality or growth inhibition) at 200 ppm [13] [%] | percent control (mortality or growth inhibition) at 12.5 ppm [14] [%] | percent control (mortality or growth inhibition) at 200 ppm [15] [%] | mortality at 200 ppm [16] [%] | mortality at 200 ppm [17] [%] | mortality at 200 ppm [18] [%] | mortality at 12.5 ppm [19] [%] | mortality at 200 ppm [20] [%] |
| --- | --- | --- | --- | --- | --- | --- | --- | --- | --- | --- | --- | --- | --- | --- | --- | --- | --- | --- | --- | --- |
| C[C@H](NC(=O)c1cc(C(F)(F)F)cc(C(F)(F)F)c1)c1ncnn1-c1ncccn1 [Compound 17] | ≥ 80 | ≥ 80 | ≥ 80 | ≥ 80 | ≥ 80 | ≥ 80 | ≥ 80 | ≥ 80 | ≥ 80 | ≥ 80 | ≥ 80 | ≥ 80 | ≥ 80 | – | – | – | – | – | – | – |
| CCN(C(=O)c1cc(C(F)(F)F)cc(C(F)(F)F)c1)C(C)c1ncnn1-c1ncccn1 (stereo not shown) [Compound 39] | ≥ 80 | ≥ 80 | ≥ 80 | ≥ 80 | ≥ 80 | ≥ 80 | ≥ 80 | ≥ 80 | ≥ 80 | ≥ 80 | ≥ 80 | ≥ 80 | ≥ 80 | ≥ 80 | ≥ 80 | – | – | – | – | – |
| CC(c1ncnn1-c1ccccn1)N(CC1CC1)C(=O)c1cc(C(F)(F)F)cc(C(F)(F)F)c1 (stereo not shown) [Compound 74] | – | – | ≥ 80 | – | ≥ 80 | ≥ 80 | ≥ 80 | ≥ 80 | ≥ 80 | ≥ 80 | ≥ 80 | – | – | ≥ 80 | – | – | – | – | – | – |
| C#CCN(C(=O)c1cc(C(F)(F)F)cc(C(F)(F)F)c1)C(C)c1ncnn1-c1ncccn1 (stereo not shown) [Compound 2] | ≥ 80 | ≥ 80 | ≥ 80 | ≥ 80 | ≥ 80 | ≥ 80 | ≥ 80 | – | ≥ 80 | – | ≥ 80 | ≥ 80 | ≥ 80 | ≥ 80 | ≥ 80 | ≥ 80 | ≥ 80 | ≥ 60 | ≥ 80 | ≥ 60 |
| CC(c1ncnn1-c1ncccn1)N(CC1CC1)C(=O)c1cc(Cl)cc(OC(F)(F)F)c1 (stereo not shown) [Compound 26] | ≥ 80 | – | ≥ 80 | – | ≥ 80 | ≥ 80 | ≥ 80 | ≥ 80 | ≥ 80 | ≥ 80 | ≥ 80 | ≥ 80 | – | ≥ 80 | ≥ 80 | – | – | – | – | – |
